According to US20100040568A1, “Steroidal compounds as melanogenesis modifiers and uses thereof” (SkinMedica, Inc., priority 2008, published 2010):
“Also recorded” adds a separate entry of the source.

How the values were obtained:
[1] = system: melan-a cells; test: CellTiter 96 aqueous nonradioactive cell proliferation assay (cell viability); type: cell-based, murine; details: concentrations below 20 μM
Experimental: The IC50 value for inhibition of cellular melanin synthesis for conessine was determined by culturing melan-a cells with various concentrations of conessine for 72 hours. Briefly, melan-a cells were plated at 5×10^4 cells per well in 1 ml of culture media in 24-well plates the day before adding conessine. Conessine was added at the indicated final concentrations. DMSO was used as a negative control. Cells were harvested after 72 hours of incubation, and spectrophotometric melanin assay was performed on cell pellets. The melanin contents were normalized to the total amount of protein. Cell viability was determined by using the CellTiter 96 aqueous nonradioactive cell proliferation assay.

[2] = molecular target: T1, tyrosinase (Mus musculus, UniProt P11344); test: Tyrosinase activity assay on melan-a cell lysates; type: biochemical, murine; details: for direct inhibition of tyrosinase enzymatic activity: melan-a cell lysates (10 μg) pre-incubated with conessine 10 μM for 30 minutes
T1 construct: endogenous in cells; host or cells: melan-a cells (murine melanocytes), cell lysate
T1 sequence (P11344 19-533): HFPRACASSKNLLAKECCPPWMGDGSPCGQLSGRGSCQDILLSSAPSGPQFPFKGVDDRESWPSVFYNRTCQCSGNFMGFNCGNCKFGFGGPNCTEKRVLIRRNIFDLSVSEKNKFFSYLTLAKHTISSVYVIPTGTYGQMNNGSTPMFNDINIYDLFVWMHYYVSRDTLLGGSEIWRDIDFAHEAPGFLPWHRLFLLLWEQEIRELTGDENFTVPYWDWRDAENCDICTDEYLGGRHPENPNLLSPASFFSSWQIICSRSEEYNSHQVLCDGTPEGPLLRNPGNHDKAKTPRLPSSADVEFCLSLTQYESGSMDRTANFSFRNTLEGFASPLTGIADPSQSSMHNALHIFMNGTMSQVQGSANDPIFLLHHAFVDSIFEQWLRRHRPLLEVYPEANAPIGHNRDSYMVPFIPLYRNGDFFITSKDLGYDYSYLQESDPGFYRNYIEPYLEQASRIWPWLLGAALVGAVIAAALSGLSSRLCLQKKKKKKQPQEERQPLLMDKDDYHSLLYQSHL
Experimental: The effect of conessine on tyrosinase activity was studied in vitro using melan-a cell lysates.
In one example, melan-a cell lysates (10 μg) were pre-incubated with either diluent, conessine (10 μM) or phenylthiourea (PTU, 300 μM, a known tyrosinase inhibitor) for 30 minutes at room temperature. Tyrosinase activity assay was performed in triplicate on melan-a cell lysates as previously described (Orlow et al. 1990).

[3] = system: Microphthalmia transcription factor (MITF); test: Level of microphthalmia transcription factor in melan-a cells; type: cell-based, murine
Experimental: Melan-a cells were incubated with various concentrations of conessine for 72 hours. Cell lysates were prepared and separated by 7.5% sodium dodecyl sulfate-polyacrylamide gel and transferred to Immobilon-P membranes. Tyrosinase gene family proteins were detected with antibodies against each protein. […] Microphthalmia transcription factor (MITF) is a transcription factor that regulates the expression of tyrosinase gene family. […] Thus, increased levels of tyrosinase gene family proteins with conessine treatment are not due to increased MITF expression in melan-a cells.

[4] = system: Asian skin equivalent (MEL-A); test: MelanoDerm pigmentation assay, Asian skin equivalent; type: cell-based, human
Excerpt: MelanoDerm™, made by MatTek Corp., is a viable reconstituted three-dimensional human skin equivalent containing normal melanocytes and keratinocytes that are derived from African-American (MEL-B), Asian (MEL-A) or Caucasian (MEL-C) donors. Both MEL-A and MEL-B tissues were used in the current study, and they were maintained in the NMM-113 medium as recommended by the manufacturer.
Tissues were taken out on Days 13 and 16 for the various assays. 30% ethanol: 70% propylene glycol was used as a negative control and the well-known pigmentation inhibitor, arbutin (at concentration of 3 mg/ml), was used as a positive control.
The experiments were repeated twice on both MEL-A and MEL-B tissues from different lots to make sure that the results are reproducible (study 1 or 2). For each experiment, six tissues were treated with conessine, and six were treated with […] (30% ethanol: 70% PEG) or arbutin if applicable. For MEL-B, on day 10, three tissues under each treatment condition were taken out, and one was used for histological studies and the other two were used for the melanin assay. The same protocol was followed with the MEL-B samples after 13 days' treatment and MEL-A after either 13 or 16 days' treatments.
Procedure 1: the effects of conessine on melanin synthesis in MEL-A or B were evaluated by light microscopy (views from the top surface of the tissue). Procedure 2: the distribution of melanin in the treated-MEL-A or B was accessed by image analysis using Fontana-Masson stained histological sections (views from the side of the tissue).
MelanoDerm™, made by MatTek Corp., is a viable reconstituted three-dimensional human skin equivalent containing normal melanocytes and keratinocytes that are derived from African-American (MEL-B), Asian (MEL-A) or Caucasian (MEL-C) donors. It has human skin-like structure and undergoes progressive tissue darkening over the course of 2-3 weeks. MelanoDerm™ provides a useful in vitro means for evaluation of agents that modulate pigmentation. Human skin equivalent models such as MelanoDerm™ provide an alternative to clinical and animal testing for evaluating the effects of putative bioactive compounds on mammalian pigmentation. MelanoDerm™ is considered a more physiologically relevant model than melanocytes alone or melanocyte-keratinocyte co-cultures. Both MEL-A and MEL-B tissues were used in the current study, and they were maintained in the NMM-113 medium as recommended by the manufacturer. In this model, substantial accumulation of newly synthesized melanin occurs over a two to three week period.
Conessine and Licorice extract were dissolved in 30% ethanol: 70% propylene glycol (PEG) to a final concentration of 0.036% (0.36 mg/ml). A 25 μl aliquot of each compound was applied topically to the Asian MelanoDerm™ tissue (MEL-A) on Days 0, 1, 3, 6, 8, 10 and 13. The MelanoDerm™ tissues were fed every other day with 5 ml fresh NMM-113. Prior to each application, the tissues were washed with 1 ml PBS to remove any residual test compound. Tissues were fixed on Days 13 and 16 for microscopic analysis and histological evaluation. In addition, duplicate tissues were frozen on Days 13 and 16 for melanin assay. 30% ethanol: 70% PEG was used as negative control. Cell viability was measured in accordance with the manufacturer's instructions using the MTT assay kit (MatTek Corp., Ashland, Mass. 01721). One MEL-A tissue from each condition was harvested on day 2 and 7, and MTT assay was performed. Similar experiments were performed on MEL-B.
Quantitative melanin assay was performed on the treated MEL-A tissues.

SMILES: CC1C2CCC3C4CC=C5CC(N(C)C)CCC5(C)C4CCC32CN1C (centres unmarked) [Compound 1, Conessine]
- cytotoxicity [1]: did not exhibit cytotoxicity
- tyrosinase activity of lysates of pre-treated cells ([2]; cells pre-incubated with conessine for 72 hrs before harvesting): No obvious difference in tyrosinase activity
- direct inhibition of tyrosinase enzymatic activity ([2]; listed as Conessine): did not directly inhibit tyrosinase activity
- direct inhibition of tyrosinase enzymatic activity ([2]; listed as conessine): does not directly inhibit tyrosinase enzymatic activity
- level of MITF [3]: no notable effect
- decreased melanin content (quantitative melanin assay) ([4]; 0.036% topical, both 13 and 16 days, compared to vehicle-treated): 30-40%
- melanin content compared to the vehicle-treated tissues (Fontana-Masson sections, quantitative analysis) ([4]; 0.036% topical, day 13, 8 sections): 49.90%
- melanin content compared to the vehicle-treated tissues (Fontana-Masson sections, quantitative analysis) ([4]; 0.036% topical, day 16, 8 sections): 42.31%
- effectiveness as depigmenting agent (comparison) ([4]; arbutin 3 mg/ml, conessine and licorice 0.36 mg/ml, extract 1:50): more effective than either Licorice extract or arbutin
- pigmentation by light microscopy ([4]; conessine 0.036% (0.36 mg/ml), extract diluted 1:50, 25 μl topical, days 13 and 16): strikingly decreased; also recorded: becomes lighter
- melanin content by Fontana-Masson staining ([4]; conessine and licorice 0.36 mg/ml, extract diluted 1:50, 25 μl topical, days 13 and 16): significant decrease in the relative melanin content
